Experimental data as given in patent US9127255B2, “3-dimensional scaffolds for improved differentiation of pluripotent stem cells to hepatocytes” (Takara Bio Europe AB, priority 2010, dated 2015).

Test system: CYP2C9
Experiment: CYP2C9 activity and induction in cells cultured in Alvatex (ReInnervate) scaffolds, OH-Diclophenac by HPLC
Format: cell-based, human
Settings: cells cultured on 3D surfaces (FIG. 8)
Experimental: Cell line SA461 (Cellartis AB) was cultured and differentiated according to conditions in Examples 1 and 2, experiment 083 and then according to the scheme below: Cells were induced with 1 mM Phenobarbital, 10 μM dexamethasone and 5 μM β-naphthoflavone. To each well, either induction or control medium was added (400 ul/well 2D cultures, 2000 ul/well in […] scaffolds) and the plate was incubated 24 h. After 24 hours of induction, all wells were washed 2× in DPBS+/+ and activity assay medium was added, 200 ul/well in 2D controls and 1000 ul/well in ReInnervate scaffolds. […] After 16 hours incubation at 37 C, the medium was transferred to eppendorf tubes and spun down for 20 min at 4° C. and 10000 g. […] Figures show CYP response in hESC-derived hepatocytes cultured either on […]) or 2D control, cells induced with Diclofenac to mimic hepatic liver activity. Activity assay performed at day 23 and day 29 as indicated.

O=C(O)Cc1ccccc1Nc1c(Cl)cccc1Cl [diclophenac]
CYP2C9 activity when cells were treated: elevated
